pIC50: −log10 of the molar value. Where two headings read alike, the source gives them in different places.

For experiment [1], the system named is phosphorylation of EGFR (Tyr1068) in NCI-H1975 cell line that harbors the EGFR L858R T790M mutations. Nature of the experiment: NCI-H1975 pEGFR AlphaLISA assay. The following applies: 4-5 hours incubation, read-out: Ext pEGFR H1975. The class given is cell-based. In short, it runs like this:
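NCI-H1975 cells (EGFR L858R/T790M) seeded overnight, then treated with compound for 4-5 h at 37 °C/5% CO2. After lysis, p-EGFR (Tyr1068) quantified by AlphaLISA SureFire Ultra with acceptor then donor beads; IC50 fitted from percent inhibition versus log concentration.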
On the technique in general: Bead proximity is the source of the signal in Alpha formats.

A further experiment deals with T1, EGFR (L858R T790M C797S) (Homo sapiens, UniProt P00533, C797S/L858R/T790M).
T1 construct: purchased SignalChem E10-122VG
Nature of the experiment: Biochemical EGFR inhibition assay (Caliper mobility shift), EGFR LRTMCS mutant. The following applies: inhibitory activity against EGFR LRTMCS mutant; apparent IC50; read-out: Ext Enz LRTMCS. The essentials:
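Each enzyme was allowed to phosphorylate 10–20% of its peptide at 25° C. before EDTA (35 mM) quench. Separated substrate and product peaks were measured by mobility shift, giving apparent IC50 values.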

Setting [2] is: Homo sapiens, NCI-H1975, inhibition of phosphorylation of mutant EGFR in NCI-H1975 cells.
[3] abbreviates: inhibition of phosphorylation of mutant EGFR in NCI-H1975 cells.

T1 sequence (P00533 25-1210 T790M/C797S/L858R): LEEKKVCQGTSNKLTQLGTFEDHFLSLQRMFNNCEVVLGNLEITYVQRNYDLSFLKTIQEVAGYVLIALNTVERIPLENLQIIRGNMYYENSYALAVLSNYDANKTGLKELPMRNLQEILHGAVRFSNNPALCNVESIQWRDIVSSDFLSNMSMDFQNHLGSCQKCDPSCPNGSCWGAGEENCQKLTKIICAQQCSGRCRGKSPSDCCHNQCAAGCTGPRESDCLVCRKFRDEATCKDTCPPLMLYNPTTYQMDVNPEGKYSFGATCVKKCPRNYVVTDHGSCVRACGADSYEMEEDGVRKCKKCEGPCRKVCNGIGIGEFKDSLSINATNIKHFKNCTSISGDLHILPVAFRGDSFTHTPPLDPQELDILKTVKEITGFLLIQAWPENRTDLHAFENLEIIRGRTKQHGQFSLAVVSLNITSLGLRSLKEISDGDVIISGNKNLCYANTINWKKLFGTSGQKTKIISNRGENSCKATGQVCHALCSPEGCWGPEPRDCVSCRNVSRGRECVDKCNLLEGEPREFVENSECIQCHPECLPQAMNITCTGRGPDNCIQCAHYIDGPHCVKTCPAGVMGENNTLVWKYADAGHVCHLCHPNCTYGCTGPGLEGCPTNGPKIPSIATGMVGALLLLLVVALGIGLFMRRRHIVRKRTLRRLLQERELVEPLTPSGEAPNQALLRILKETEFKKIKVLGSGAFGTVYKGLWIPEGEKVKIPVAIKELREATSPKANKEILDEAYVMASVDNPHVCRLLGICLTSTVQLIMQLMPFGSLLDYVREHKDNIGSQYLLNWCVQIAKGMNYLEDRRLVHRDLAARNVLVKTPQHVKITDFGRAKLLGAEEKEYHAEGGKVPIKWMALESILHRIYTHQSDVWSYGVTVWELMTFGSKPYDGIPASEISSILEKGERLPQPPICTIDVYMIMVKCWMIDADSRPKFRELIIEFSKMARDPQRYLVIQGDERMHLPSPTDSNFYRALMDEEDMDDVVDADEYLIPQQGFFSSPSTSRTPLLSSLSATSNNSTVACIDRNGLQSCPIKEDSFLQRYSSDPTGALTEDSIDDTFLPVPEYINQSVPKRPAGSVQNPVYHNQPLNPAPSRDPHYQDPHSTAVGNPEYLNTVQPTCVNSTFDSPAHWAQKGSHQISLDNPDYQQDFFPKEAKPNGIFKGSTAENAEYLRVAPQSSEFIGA

As to `CC(C)c1ccc(N2C[C@H](CS(C)(=O)=O)[C@H]2C)c2cnc(Nc3ccnc(N4CC[C@H](O)C[C@H]4C)n3)cc12` (single isomer, unassigned) [Compound 49, (2R,4S)-1-[4-({8-[(2R,3S)-3-(methanesulfonylmethyl)-2-methylazetidin-1-yl]-5-(propan-2-yl)isoquinolin-3-yl}amino)pyrimidin-2-yl]-2-methylpiperidin-4-ol or (2S,4R)-1-[4-({8-[(2R,3S)-3-(methanesulfonylmethyl)-2-methylazetidin-1-yl]-5-(propan-2-yl)isoquinolin-3-yl}amino)pyrimidin-2-yl]-2-methylpiperidin-4-ol], the values for the pIC50 (in experiment [1] (setting [2]); at EGFR (L858R T790M C797S)) were no less than 8.00 and no less than 7.82, respectively.
With `C[C@]1(F)CN(c2nccc(Nc3cc4c(C5CC5)ccc(N5CC(CS(C)(=O)=O)C5)c4cn3)n2)CC[C@H]1O` (single isomer, unassigned) [Compound 51], the pIC50 is 7.52 to 7.70 in experiment [1] (setting [2]) and no less than 7.82 at EGFR (L858R T790M C797S).
In the case of `CO[C@@H]1CCN(c2nccc(Nc3cc4c(C(C)C)ccc(N5CC(CS(C)(=O)=O)C5)c4cn3)n2)C[C@@H]1O` (single isomer, unassigned) [Compound 52, (3S,4R)-1-(4-(5-isopropyl-8-(3-(methylsulfonylmethyl)azetidin-1-yl)isoquinolin-3-ylamino)pyrimidin-2-yl)-4-methoxypiperidin-3-ol or (3R,4S)-1-(4-(5-isopropyl-8-(3-(methylsulfonylmethyl)azetidin-1-yl)isoquinolin-3-ylamino)pyrimidin-2-yl)-4-methoxypiperidin-3-ol], the pIC50 was no less than 8.00 in experiment [1] (setting [2]) and no less than 7.82 on EGFR (L858R T790M C797S).
On to `CO[C@H]1CCN(c2nccc(Nc3cc4c(C(C)C)ccc(N5CC(CS(C)(=O)=O)C5)c4cn3)n2)C[C@@H]1O` (single isomer, unassigned) [Compound 53, (3S,4S)-1-[4-({8-[3-(methanesulfonylmethyl)azetidin-1-yl]-5-(propan-2-yl)isoquinolin-3-yl}amino)pyrimidin-2-yl]-4-methoxypiperidin-3-ol or (3R,4R)-1-[4-({8-[3-(methanesulfonylmethyl)azetidin-1-yl]-5-(propan-2-yl)isoquinolin-3-yl}amino)pyrimidin-2-yl]-4-methoxypiperidin-3-ol], for which the pIC50 in experiment [1] (setting [3]) was no less than 8.00; at EGFR (L858R T790M C797S) it was no less than 7.82.
In the case of `CO[C@H]1CCN(c2nccc(Nc3cc4c(C(C)C)ccc(N5CC(CS(C)(=O)=O)C5)c4cn3)n2)C[C@@H]1O` (single isomer, unassigned) [Compound 54, (3R,4R)-1-[4-({8-[3-(methanesulfonylmethyl)azetidin-1-yl]-5-(propan-2-yl)isoquinolin-3-yl}amino)pyrimidin-2-yl]-4-methoxypiperidin-3-ol or (3S,4S)-1-[4-({8-[3-(methanesulfonylmethyl)azetidin-1-yl]-5-(propan-2-yl)isoquinolin-3-yl}amino)pyrimidin-2-yl]-4-methoxypiperidin-3-ol], the results for the pIC50 (in experiment [1] (setting [3]); on EGFR (L858R T790M C797S)) were 7.30 to 7.52 and no less than 7.82, respectively.
`CC(C)c1ccc(N2CC(CS(C)(=O)=O)C2)c2cnc(Nc3ccnc(N4CC[C@@](C)(O)[C@@H](F)C4)n3)cc12` (single isomer, unassigned) [Compound 56]: the pIC50 in experiment [1] (setting [2]) is 7.70 to 8.00; on EGFR (L858R T790M C797S) it was no less than 7.82.
With `CC(C)c1ccc(N2CC(CS(C)(=O)=O)C2)c2cnc(Nc3ccnc(N4CC[C@](C)(O)[C@H](F)C4)n3)cc12` (single isomer, unassigned) [Compound 57], the figures for the pIC50 (in experiment [1] (setting [2]); on EGFR (L858R T790M C797S)) were 7.70 to 8.00 and no less than 7.82, respectively.
Regarding `CC(C)c1ccc(N2CC(CS(C)(=O)=O)C2)c2cnc(Nc3ccnc(N4CC[C@](F)([C@@H](C)O)C4)n3)cc12` (single isomer, unassigned) [Compound 58, (1R)-1-[(3R)-3-fluoro-1-[4-({8-[3-(methanesulfonylmethyl)azetidin-1-yl]-5-(propan-2-yl)isoquinolin-3-yl}amino)pyrimidin-2-yl]pyrrolidin-3-yl]ethan-1-ol or (1S)-1-[(3S)-3-fluoro-1-[4-({8-[3-(methanesulfonylmethyl)azetidin-1-yl]-5-(propan-2-yl)isoquinolin-3-yl}amino)pyrimidin-2-yl]pyrrolidin-3-yl]ethan-1-ol], the values for the pIC50 (in experiment [1] (setting [2]); at EGFR (L858R T790M C797S)) were 7.52 to 7.70 and 7.70 to 7.82, respectively.
Consider `CC(C)c1ccc(N2CC(CS(C)(=O)=O)C2)c2cnc(Nc3ccnc(N4CC[C@@](F)([C@@H](C)O)C4)n3)cc12` (single isomer, unassigned) [Compound 59, (1R)-1-[(3S)-3-fluoro-1-[4-({8-[3-(methanesulfonylmethyl)azetidin-1-yl]-5-(propan-2-yl)isoquinolin-3-yl}amino)pyrimidin-2-yl]pyrrolidin-3-yl]ethan-1-ol or (1S)-1-[(3R)-3-fluoro-1-[4-({8-[3-(methanesulfonylmethyl)azetidin-1-yl]-5-(propan-2-yl)isoquinolin-3-yl}amino)pyrimidin-2-yl]pyrrolidin-3-yl]ethan-1-ol], for which the pIC50 in experiment [1] (setting [2]) is 7.70 to 8.00; on EGFR (L858R T790M C797S), no less than 7.82.
`CCS(=O)(=O)CC1CN(c2ccc(C)c3cc(Nc4ccnc(N5C[C@@H](F)[C@@H](O)C(C)(C)C5)n4)ncc23)C1` (single isomer, unassigned) [Compound 60, (4S,5R)-1-{4-[(8-{3-[(ethanesulfonyl)methyl]azetidin-1-yl}-5-methylisoquinolin-3-yl)amino]pyrimidin-2-yl}-5-fluoro-3,3-dimethylpiperidin-4-ol or (4R,5S)-1-{4-[(8-{3-[(ethanesulfonyl)methyl]azetidin-1-yl}-5-methylisoquinolin-3-yl)amino]pyrimidin-2-yl}-5-fluoro-3,3-dimethylpiperidin-4-ol]: the results for the pIC50 (in experiment [1] (setting [2]); at EGFR (L858R T790M C797S)) were 7.52 to 7.70 and no less than 7.82, respectively.
In the case of `CCc1ccc(N2C[C@H](CS(C)(=O)=O)[C@H]2C)c2cnc(Nc3ccnc(N4CC[C@@H](O)[C@@](C)(F)C4)n3)cc12` (single isomer, unassigned) [Compound 65], the results for the pIC50 (in experiment [1] (setting [2]); at EGFR (L858R T790M C797S)) were no less than 8.00 and no less than 7.82, respectively.
As to `CCS(=O)(=O)C[C@H]1CN(c2cccc3cc(Nc4ccnc(N5C[C@@H](F)[C@@H](O)C(C)(C)C5)n4)ncc23)[C@@H]1C` (single isomer, unassigned) [Compound 66, (4S,5R)-1-[4-({8-[(2R,3S)-3-[(ethanesulfonyl)methyl]-2-methylazetidin-1-yl]isoquinolin-3-yl}amino)pyrimidin-2-yl]-5-fluoro-3,3-dimethylpiperidin-4-ol or (4R,5S)-1-[4-({8-[(2R,3S)-3-[(ethanesulfonyl)methyl]-2-methylazetidin-1-yl]isoquinolin-3-yl}amino)pyrimidin-2-yl]-5-fluoro-3,3-dimethylpiperidin-4-ol], the pIC50 in experiment [1] (setting [2]) is no less than 8.00; on EGFR (L858R T790M C797S), no less than 7.82.
In the case of `CC(C)c1ncc(N2CC(CS(C)(=O)=O)C2)c2cnc(Nc3ccnc(N4CC[C@@H](O)[C@@](C)(F)C4)n3)cc12` (single isomer, unassigned) [Compound 70], the pIC50 in experiment [1] (setting [2]) was no less than 8.00; at EGFR (L858R T790M C797S), no less than 7.82.
Turning to `CCS(=O)(=O)CC1CN(c2ccc(OC)c3cc(Nc4ccnc(N5CC[C@@H](O)[C@@](C)(F)C5)n4)ncc23)C1` (single isomer, unassigned) [Compound 77], the pIC50 in experiment [1] (setting [2]) is 7.30 to 7.52; on EGFR (L858R T790M C797S), 7.70 to 7.82.
Regarding `CCOc1ccc(N2CC(CS(C)(=O)=O)C2)c2cnc(Nc3ccnc(N4CC[C@@H](O)[C@@](C)(F)C4)n3)cc12` (single isomer, unassigned) [Compound 78], the pIC50 in experiment [1] (setting [2]) was 7.52 to 7.70; at EGFR (L858R T790M C797S), no less than 7.82.
`COc1ccc(N2CC(CS(C)(=O)=O)C2)c2cnc(Nc3ccnc(N4C[C@@H](F)[C@@H](O)C(C)(C)C4)n3)cc12` (single isomer, unassigned) [Compound 79, (4S,5R)-5-fluoro-1-[4-({8-[3-(methanesulfonylmethyl)azetidin-1-yl]-5-methoxyisoquinolin-3-yl}amino)pyrimidin-2-yl]-3,3-dimethylpiperidin-4-ol or (4R,5S)-5-fluoro-1-[4-({8-[3-(methanesulfonylmethyl)azetidin-1-yl]-5-methoxyisoquinolin-3-yl}amino)pyrimidin-2-yl]-3,3-dimethylpiperidin-4-ol]: the results for the pIC50 (in experiment [1] (setting [2]); on EGFR (L858R T790M C797S)) were 7.70 to 8.00 and no less than 7.82, respectively.
In the same order, the values of `CCOc1cnc(N2CC(CS(C)(=O)=O)C2)c2cnc(Nc3ccnc(N4CC[C@@H](O)[C@@](C)(F)C4)n3)cc12` (single isomer, unassigned) [Compound 80] are 7.30 to 7.52 and no less than 7.82.
In the same order, the values of `[2H]C([2H])([2H])O[C@H]1CCN(c2nccc(Nc3cc4c(C(C)C)ccc(N5CC(CS(C)(=O)=O)C5)c4cn3)n2)C[C@H]1F` (single isomer, unassigned) [Compound 81] are no less than 8.00 and no less than 7.82.
On to `[2H]C([2H])([2H])O[C@@H]1CCN(c2nccc(Nc3cc4c(C(C)C)ccc(N5CC(CS(C)(=O)=O)C5)c4cn3)n2)C[C@@H]1F` (single isomer, unassigned) [Compound 82], for which the pIC50 was no less than 8.00 in experiment [1] (setting [2]) and no less than 7.82 at EGFR (L858R T790M C797S).

Source of the values: patent publication US12172983B2, “EGFR inhibitors” (Blueprint Medicines Corporation, priority 2019, dated 2024).
